In patent US20050026810A1, “Treatment of male sexual dysfunction” (Pfizer Inc., priority 2003, published 2005):
Several values for one entry are separate records, joined by “and”; a condition that tells them apart may be missing. Equal values may be shown once.

Experiments:
[1] = test system: copulatory behaviour in conscious rats; assay: Copulatory behaviour in conscious rats (ejaculatory latency); format: in vivo, rat; conditions: 0.05 mgkg^-1 sc
Protocol: For all the sexual behavour tests, the male rats were placed in an observation arena (50-60 cm diameter), starting 5 hours into the dark cycle and observed under red ilumination. Three to four minutes after placing the male in the arena, a receptive female (ovariectomised, oestradiol benzoate/progesterone injection 48 hour before behavioural study) was introduced into the arena and the following parameters noted: • i) ejaculatory latency (EJL; time taken from addition of receptive female into the arena to ejaculation); • ii) copulatory efficiency (CE; ejaculatory latency/the number of ihtromissions to ejaculation, i.e. the number of seconds between intromissions); • iii) intromission frequency (IF; the number of intromissions to ejaculation); • iv) mount frequency (MF; the number of mounts to ejaculation); • v) post ejaculatory interval (PEI; the time taken from ejaculation to the commencement of copulatory behaviour).
Rodent copulatory behaviour is characterised by a series of mounts, with and without vaginal insertion (50-80% of mounts result in intromission [vaginal penetration]) and ejaculation occurs after 6 to 12 intromissions. Each intromission lasts a matter of seconds—it is not possible to quantify intromission length i.e. intravaginal latency. The effect of L-371257 was assessed on a number of copulatory parameters (see above). We have focused ejaculatory latency as a clinical biomarker of time taken to achieve ejaculation.

[2] = Plasma concentration in the copulatory behaviour study; format: in vivo, rat; conditions: 0.05 mgkg^-1 sc, rats
[3] = target: vasopressin V1a receptors (Rattus norvegicus, UniProt P30560); conditions: cited from earlier work
oxytocin receptors = conditions: read-out: OT; cited from earlier work
[4] = test system: PCA-induced ejaculation in anaesthetised rats; assay: p-chloroamphetamine (PCA)-induced ejaculation and penile erection in anaesthetised rats; format: in vivo, rat
Protocol: In order to study penile; erection and ejaculation the method used was based on the methodology taught in Yonezawa et al. (2000) Life Sciences 67, 3031-3039. For ease of reference, this methodology is described below:
Male Sprague Dawley rats, weighing 350-450 g, are used. Prior to the experiments the animals are housed in groups (2 rats per cage) under controlled 12 h light-dark cycle (lights on at 07:00), constant temperature (23±1° C.) and humidity (55±5%). They have free access to standard food pellets and water.
Rats are anesthestised with sodium pentobarbitone (50 mg/kg, i.p.) and are placed in the supine position. The penis is extruded from its sheath and gently held by a wooden applicator positioned at the base of the penis. The test compounds are administered by intravenous infusion and p-chloroamphetamine (PCA) (5-10 mg/kg) is administered i.p. immediately before the sheath retraction and the penile responses, including penile erection, redding and expansion of the penile body, glans erection, engorgement and slight flaring of the glans and cup, glans erection with intense flaring of the glans, are recorded. Latencies from PCA administration to the initial penile response and ejaculation is also measured in seconds.
The effect of a test compound on p-chloroamphetamine (PCA) induced ejaculation is also assessed by weighing the ejaculates accumulated over 30 mins. A suitable method using conscious rats is described in Renyi (1985) Neuropharmacology, Vol. 24. No. 8, pp 697-704.

Sequence of vasopressin V1a receptors (P30560 whole entry): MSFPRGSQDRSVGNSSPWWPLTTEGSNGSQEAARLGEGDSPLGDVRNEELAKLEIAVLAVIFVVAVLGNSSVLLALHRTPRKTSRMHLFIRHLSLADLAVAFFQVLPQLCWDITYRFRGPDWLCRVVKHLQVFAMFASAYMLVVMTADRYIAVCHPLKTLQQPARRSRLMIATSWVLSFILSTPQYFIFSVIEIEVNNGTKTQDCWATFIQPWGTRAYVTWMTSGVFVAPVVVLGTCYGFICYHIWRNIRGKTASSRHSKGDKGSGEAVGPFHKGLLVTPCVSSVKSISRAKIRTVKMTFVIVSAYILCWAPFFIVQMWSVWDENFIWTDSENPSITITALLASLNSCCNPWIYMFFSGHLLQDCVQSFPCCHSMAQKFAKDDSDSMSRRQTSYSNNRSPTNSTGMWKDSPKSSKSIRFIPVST

Compound	other effects on copulatory behaviour [1]	increase of ejaculatory latency ([1]; P<0.05 vs vehicle)	Ejaculatory latency ([1]; plasma conc ~30 nM, mean ± sem, n = 8)	Plasma conc [2]	Ki [3]	Ki (oxytocin receptors)	time taken for the rats to achieve erection ([4]; anaesthetised rats, PCA)	Ejaculation delayed (near maximal effect) ([4]; free plasma concentration 30.9 nM, intravenous infusion, anaesthetised rats)	ejaculation and penile erection, in words ([4]; plasma conc 11.4 nM and 30.9 nM)	effect on PCA-induced ejaculation ([4]; plasma concentration of 9-31 nM, anaesthetised rats)
COc1cc(OC2CCN(C(C)=O)CC2)ccc1C(=O)N1CCC(N2C(=O)OCc3ccccc32)CC1 [L-371,257]	no other significant effects	67%	266 s and 266.4 ± 30.9 s	~30 nM	3.7 nM	19 nM				
COC1CCN(Cc2nnc(C3CCN(c4ccccn4)CC3)n2Cc2ccccc2)CC1 [Compound 1, 4-[4-Benzyl-5-(4-methoxy-piperidin-1-ylmethyl)-4H-[1,2,4]triazol-3-yl]-3,4,5,6-tetrahydro-2H-[1,2′]bipyridinyl]							not significantly affected	100%	* At both of these concentrations Compound 1 delayed ejaculation without affecting penile erection.	significantly delayed
